For this data set the following is noted: about 8 mg of LANE, end of test, filter wash.

Molecules are shown by their SMILES.

Data on 1 molecule can be found in patent US20250041252A1, “POWDERS FOR INHALATION AND PRODUCTION PROCESS THEREOF” (UNIVERSITA' DEGLI STUDI DI PARMA, priority 2021, published 2025).

Text: The apparatus is consisting of an upper part, the donor chamber, and a lower part, the receiving chamber, held together by means of a metal clamp, but separated by a glass microfiber filter, used as a diffusion membrane, and placed horizontally in contact with the dissolution medium. The receiving chamber contains a magnetic stirrer.
The dissolution medium used for the analysis is phosphate buffered saline (PBS), prepared weighing 8 g of NaCl, 0.2 g of KCl, 1.44 g of Na2HPO4, and 0.12 g of KH2PO4 dissolved in 1 L of distilled water, with a final pH of 7.4. During the analysis, RespiCell™ was thermostated (Lauda eco silver E4, DE) at 37±0.5° C.
The receiving chamber was filled with PBS and sampled at pre-established time intervals through the side arm of the cell. Before the analysis 1 mL of the dissolution medium was applied on the filter, to get it completely wet.
To assess the not dissolved or trapped in the filter drug amount, the not dissolved residual powder was recovered washing the filter with 5 mL of a methanol:water 75:25 v/v mixture, at the end of the experiment. The drug amount in the samples was quantified by HPLC analysis.

As to `CCN(CC)CC(=O)Nc1c(C)cccc1C` [Lidocaine powder raw material, lidocaine], the “Lidocaine retained on and inside the filter” value is on record as 0.1 ± 0.0 mg.
